According to patent publication US20230302010A1, “2-((4S)-6-(4-CHLOROPHENYL)-1-METHYL-4H-BENZO[C]ISOXAZOLO[4,5-E]AZEPIN-4-YL)ACETAMIDE FOR TREATING THROMBOCYTHEMIA” (Constellation Pharmaceuticals, Inc., priority 2020, published 2023):
Like-named read-outs stand apart in the source and are kept apart here.

Legend:
[1] = system: IL6 release from THP-1 acute leukemia cells; assay: IL6 release from lipopolysaccharide-treated THP-1 cells; format: cell-based; details: Homo sapiens; THP-1 cells exposed to lipopolysaccharide, then compound for 16 hours; read-out: IL6 release inhibition IC50
Method: Compound 1 was assessed for its ability to suppress the expression of NF-κB target genes in two experiments. In one experiment, THP-1 acute leukemia cell lines were exposed to lipopolysaccharide treatment and then Compound 1 for 16 hours. […] In the other experiment, the ability of Compound 1 to suppress both IL6 and IL10 expression in TMD8 ABC-DLBCL cells was investigated (data on file). TMD8 cells were incubated with DMSO or 1.6 μM Compound 1 for 6 or 24 hours. RNA was then extracted from the cells and quantified using qRT-PCR.

[2] = system: CD34+ cells isolated from healthy donor bone marrow; assay: Megakaryocyte differentiation of CD34+ cells (FACS, CD41a expression); format: cell-based; details: 14 days, FACS (FIG. 2)
Method: The effects of Compound 1 on megakaryocyte differentiation and proliferation were evaluated using CD34+ cells isolated from healthy donor bone marrow (data on file). The CD34+ cells were grown in megakaryocyte differentiation serum-free stem cell differentiation base medium with a megakaryocyte-driving cytokine cocktail for 14 days with DMSO or Compound 1 at concentrations ranging from 3 nM to 500 nM. The cells were then stained for CD34 (progenitor marker), CD45 (leukocyte marker) and CD41a (mature megakaryocyte marker) and assessed by FACS for viability and marker expression. CD41a expression and cell size were used as markers of megakaryocyte differentiation. […] The shift from high to low CD41a expression began at approximately 50 nM, with pronounced effects observed at 200 to 500 nM, as shown in FIG. 2.

[3] = system: patients with high-risk ET; details: cited from earlier work

Row | Structure (SMILES) | IC50 [1] [nM] | concentration at which shift from high to low CD41a expression began [2] | survival from the beginning of treatment ([3]; 14-year retrospective study, 166 high-risk ET patients) [%] | patients who died ([3]; 166 high-risk ET patients treated for a median of 4.5 years, median follow-up of seven years from diagnosis) [%] | 10-year overall survival ([3]; patients who achieved a complete response) [%] | 10-year overall survival ([3]; patients with HU resistance) [%]
1 | Cc1noc2c1-c1ccccc1C(c1ccc(Cl)cc1)=N[C@H]2CC(N)=O [Compound 1, 2-((4S)-6-(4-chlorophenyl)-1-methyl-4H-benzo[c]isoxazolo[4,5-e]azepin-4-yl)acetamide] | 69 | approximately 50 nM |  |  |  | 
2 | NC(=O)NO [HU, hydroxyurea] |  |  | 65 | 23 | 79 | 26
